Measured values from patent US8198317B2, “Methylenedioxy phenolic compounds and their use to treat disease” (The Ohio State University Research Foundation, priority 2008, dated 2012).

What was measured:
Format in all cases: in vivo, human
Cardiovascular Patient = assay: Treatment of a cardiovascular patient with chest pain (Examples 8-10); settings: 1.0 to 100 mg/kg
Description: A person presents with uncomfortable pressure, squeezing and pain in the center of their chest as well as in shoulders, arms, neck, jaw and back. […] After being evaluated with an angiography, they are diagnosed as suffering from atherosclerosis with plaque formation in the coronary arteries. The patient is administered a composition comprising an effective amount of 3,4-methylenedioxy-6-nitrophenyl acetate (INV 75) (1.0 to 100-mg/kg). Alternate therapies include, 3,4-methylenedioxy phenyl acetate (INV 73); 3,4-methylenedioxy-6-nitrophenol (INV 74; 3,4-Methylenedioxy 6-nitro phenyl lipoate (INV-7465) or 3,4-Methylenedioxy phenyl lipoate (INV-7065). The composition is optionally administered in conjunction with therapy such as administration of aspirin, a drug to reduce the tendency of platelet aggregation, such as clopidogrel bisulfate, a statin, an angiotensin converting enzyme inhibitor, and/or heparin or a combination thereof, using dosages known to one of ordinary skill in the art. Patient reports improvement in the chest pain, shortness of breath. They are again evaluated with an angiography to measure reduced plaque in their arteries.
A person presents with uncomfortable pressure, squeezing and pain in the center of their chest for less than 30 minutes. They are taken to the cardiac angiography suite for suspected unstable angina. […] After being evaluated with an angiography, they are diagnosed as suffering from atherosclerosis with plaque formation in the coronary arteries. The patient is administered a composition comprising an effective amount of 3,4-Methylenedioxy phenyl lipoate (INV-7065) (1.0 to 100 mg/kg). […] They are again evaluated with an angiography to measure reduced plaque in their arteries.
A person presents with uncomfortable pressure, squeezing and pain in the center of their chest for less than 30 minutes. […] After being evaluated with an angiography, they are diagnosed as suffering from atherosclerosis with plaque formation in the coronary arteries. […] They are again evaluated with an angiography to measure reduced plaque in their arteries.

Humans = assay: Treatment of atherosclerosis in humans, primary prevention (Example 22); settings: oral, in excess of 12 months
From the text: Individuals with risk factors for atherosclerosis such as family history, hypertension and high cholesterol are known to be at risk for future cardiovascular events such as heart attacks and strokes. These individuals are on primary prevention treatments such as hypolipidemic drug therapy such as statins aspirin and anti-hypertensive agents such as ACE inhibitors, diuretics or calcium channel blockers. They also will receive an acceptable dose of a composition comprising a compound of the present invention in an acceptable carrier orally chronically for durations in excess of 12 months. In one study, 3,4-methylenedioxy phenyl acetate (INV 73); 3,4-methylenedioxy-6-nitrophenol (INV 74); 3,4-methylenedioxy-6-nitrophenyl acetate (INV 75); 3,4-Methylenedioxy 6-nitro phenyl lipoate (INV-7465) or 3,4-Methylenedioxy phenyl lipoate (INV-7065) are administered to these individuals. A repeat IVUS measurement is made at the end of the treatment period to assess the effect of the infusion of the composition on coronary atherosclerosis in the target vessel.

Patient = assay: Treatment of a patient with recent myocardial infarction (Examples 16-18); settings: oral, 1.0 to 100 mg/kg
Description: (§1) A person presents with sudden chest pain typically radiating to the left arm or left side of the neck, shortness of breath, nausea and palpitation with vomiting and sweating. After being evaluated with an electrocardiogram (EKG, ECG), a chest X-ray and blood tests to detect elevations in cardiac markers (blood tests to detect heart muscle damage), they are diagnosed as suffering from myocardial infarction. The patient is administered therapy such as aspirin, a drug to reduce the tendency of platelet aggregation, such as clopidogrel bisulfate, a statin, IV heparin and taken to the catheterization laboratory where they undergo stenting of the coronary artery. They are allowed to recover for a 12-24 hour period. Oral therapy with 3,4-methylenedioxy-6-nitrophenyl acetate (INV 75) (1.0 to 100 mg/kg) is started and continued for at least a year. During the follow-up visit a month later, patient reports improvement in symptoms.
as §1, with “Oral therapy with 3,4-methylenedioxy-6-nitrophenyl acetate (INV 75) (1.0 to 100 mg/kg) is started and continued for at least a year. During the follow-up visit a month later, patient reports improvement in symptoms.” left out
A person presents with sudden chest pain typically radiating to the left arm or left side of the neck, shortness of breath, nausea and palpitation with vomiting and sweating. After being evaluated with an electrocardiogram (EKG, ECG), a chest X-ray and blood tests to detect elevations in cardiac markers (blood tests to detect heart muscle damage), they are diagnosed as suffering from myocardial infarction. […]

## CC(=O)Oc1cc2c(cc1[N+](=O)[O-])OCO2 [INV-75, 3,4-methylenedioxy-6-nitrophenyl acetate]
Cardiovascular Patient
  chest pain, shortness of breath: improvement
Humans
  plaque in the atherosclerotic coronary artery (IVUS): reduced
Patient
  symptoms at follow-up visit a month later: improvement

## O=C(CCCCC1CCSS1)Oc1ccc2c(c1)OCO2 (stereo not drawn) [INV-7065, 3,4-Methylenedioxy phenyl lipoate]
Cardiovascular Patient
  chest pain, shortness of breath: improvement
Humans
  plaque in the atherosclerotic coronary artery (IVUS): reduced
Patient
  symptoms at follow-up visit a month later: improvement

## O=C(CCCCC1CCSS1)Oc1cc2c(cc1[N+](=O)[O-])OCO2 (stereo not drawn) [INV-7465, 3,4-Methylenedioxy 6-nitro phenyl lipoate]
Cardiovascular Patient
  chest pain, shortness of breath: improvement
Humans
  plaque in the atherosclerotic coronary artery (IVUS): reduced
Patient
  symptoms at follow-up visit a month later: improvement
